The source of these data is patent US20110178072A1, “STEREOSPECIFICITY OF METHYLSULFINYL REDUCTION” (priority 2008, published 2011).

The target of experiment [1] is mouse MsrB2 (Mus musculus, UniProt Q78J03). The experiment can be described thus: Reduction of methylsulfinyl compounds by mouse MsrB2 (HPLC/GC analysis). It is filed as biochemical. The note with it: in the presence of DTT. How it is done: (§1) The isothiocyanate group in R,S-sulforaphane reacts with sulfhydryls to form conjugated compounds. First, the compound was treated with excess DTT (which has two free sulfhydryl groups) to conjugate the isothiocyanate group of R,S-sulforaphane or S-sulforaphane with the sulfhydryl group of DTT and the resulting adducts were then used as substrates for mouse MsrA and mouse MsrB2. The reduction of the DTT-sulforaphane adduct was analyzed using HPLC analysis of the adduct with buffer (as control; FIG. 12A), mouse MsrB2 (FIG. 12B), and mouse MsrA (FIG. 12C). The arrows indicate the migration of the DTT-erucin adduct. […] FIG. 13 illustrates the HPLC analysis of the DTT-R-sulforaphane adduct incubated with buffer (as control) (FIG. 13A), mouse MsrA (FIG. 13B), and mouse MsrB2 (FIG. 13C). Again, the arrows show the migration of the DTT-erucin adduct.
(§2) Mesoridazine, which has a mild effect on treating schizophrenia, was examined to determine its reduction by yeast fRMsr, mouse MsrB2, and mouse MsrA (FIG. 14). The peak of m/z 387.6 corresponds to the molecular weight of mesoridazine and the peak of m/z 371.6 corresponds to the molecular weight of thioridazine. FIG. 14B details the HPLC analysis of mesoridazine incubated with mouse MsrB2 and DTT. FIG. 14C provides the HPLC analysis of mesoridazine incubated with yeast fRMsr and DTT. FIG. 14D illustrates the specific activities of various Msrs for the reduction of mesoridazine (left to right): mouse MsrA in the presence of DTT as a reductant, mouse MsrA in the presence of the thioredoxin reducing system, mouse MsrB2 in the presence of DTT, and yeast fRMsr in the presence of DTT.
(§3) The reduction of triclabendazole sulfoxide was examined. This compound has been used to treat liver fluke, Fasciola hepatica and Fasciola gigantica, in sheep, goat, and cattle as a form of triclabendazole. Triclabendazole can be metabolized to several different forms including triclabendazole sulfoxide, which is an oxidized form of methylsulfide group, in biological systems. FIG. 15A provides an HPLC analysis of triclabendazole sulfoxide incubated with mouse MsrA and DTT. The peak of m/z 375.2 and 377.2 correspond to the molecular weight of triclabendazole sulfoxide and the peak of m/z 359.2 and 361.2 correspond to the molecular weight of triclabendazole. FIG. 15B illustrates an HPLC analysis of triclabendazole sulfoxide incubated with mouse MsrB2 and DTT. FIG. 15C details an HPLC analysis of triclabendazole sulfoxide incubated with yeast fRMsr and DTT. FIG. 15D illustrates the specific activities of various Msrs for the reduction of triclabendazole sulfoxide (left to right): mouse MsrA in the presence of DTT as a reductant, mouse MsrA in the presence of the thioredoxin reducing system, mouse MsrB2 in the presence of DTT, and yeast fRMsr in the presence of DTT.
Another methylsulfinyl-containing drug, sulmazole, was tested as a substrate for Msrs. This drug is pharmacologically active as a cardiotonic agent and is a phosphodiesterase inhibitor. FIG. 16A details an HPLC analysis of sulmazole incubated with mouse MsrA and DTT. The peak of m/z 288.3 corresponds to the molecular weight of sulmazole and the peak of m/z 272.3 corresponds to the molecular weight of reduced form of sulmazole. FIG. 16B illustrates an HPLC analysis of sulmazole incubated with mouse MsrB2 and DTT. FIG. 16C provides an HPLC analysis of sulmazole incubated with yeast fRMsr and DTT. […]

Experiment [2] concerns the target T1, mouse MsrA (Mus musculus, UniProt Q9D6Y7).
T1 sequence (Q9D6Y7 21-233): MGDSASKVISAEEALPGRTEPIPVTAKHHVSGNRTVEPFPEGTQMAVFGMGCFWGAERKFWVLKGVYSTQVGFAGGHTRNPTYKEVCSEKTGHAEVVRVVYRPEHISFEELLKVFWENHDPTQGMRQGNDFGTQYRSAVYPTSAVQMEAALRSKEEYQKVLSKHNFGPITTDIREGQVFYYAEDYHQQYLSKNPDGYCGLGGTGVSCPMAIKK
Kind of experiment: Reduction of methylsulfinyl compounds by mouse MsrA (HPLC/GC analysis). The experiment is classed as biochemical. How it is done: as §1, §2, §3
Another methylsulfinyl-containing drug, sulmazole, was tested as a substrate for Msrs. This drug is pharmacologically active as a cardiotonic agent and is a phosphodiesterase inhibitor. FIG. 16A details an HPLC analysis of sulmazole incubated with mouse MsrA and DTT. The peak of m/z 288.3 corresponds to the molecular weight of sulmazole and the peak of m/z 272.3 corresponds to the molecular weight of reduced form of sulmazole. FIG. 16B illustrates an HPLC analysis of sulmazole incubated with mouse MsrB2 and DTT. FIG. 16C provides an HPLC analysis of sulmazole incubated with yeast fRMsr and DTT. FIG. 16D details the specific activities of various Msrs for the reduction of sulmazole (left to right): mouse MsrA in the presence of DTT as a reductant, mouse MsrA in the presence of the thioredoxin reducing system, mouse MsrB2 in the presence of DTT, and yeast fRMsr in the presence of DTT.
DMSO, which is used as a preservative for stem cells, solvent for drugs, and a drug itself with anti-inflammatory and free radical scavenging properties, was studied for its reduction by Msrs. FIG. 17A details a GC analysis of DMSO incubated with mouse MsrA and DTT. […]

The target in experiment [3] is T2, mouse MsrB1-Cys (Mus musculus, UniProt Q9JLC3, U95C).
T2 sequence (Q9JLC3 1-116 U95C): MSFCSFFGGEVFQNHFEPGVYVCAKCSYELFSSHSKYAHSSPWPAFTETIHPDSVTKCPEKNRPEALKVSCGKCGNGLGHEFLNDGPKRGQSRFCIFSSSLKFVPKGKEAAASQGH
The experiment can be described thus: Reduction of DMSO by mouse MsrB1-Cys (GC analysis). It is filed as biochemical. The note with it: in the presence of DTT; selenocysteine replaced with cysteine. As for the experimental part: DMSO, which is used as a preservative for stem cells, solvent for drugs, and a drug itself with anti-inflammatory and free radical scavenging properties, was studied for its reduction by Msrs. FIG. 17A details a GC analysis of DMSO incubated with mouse MsrA and DTT. FIG. 17B provides a GC analysis of DMSO incubated with mouse MsrB2 and DTT. FIG. 17C illustrates a GC analysis of DMSO incubated with mouse MsrB1-Cys and DTT. FIG. 17D provides specific activities of various Msrs for the reduction of DMSO (left to right): mouse MsrA in the presence of DTT as a reductant, mouse MsrB2 in the presence of DTT, and mouse MsrB1-Cys in the presence of DTT.

The test system of experiment [4] is SK-Hep1 cells. Kind of experiment: Growth of SK-Hep1 cells in media supplemented or not with sodium selenite. The experiment is classed as cell-based, human. The conditions noted are these: 100 nM; FBS-supplemented and insulin/transferrin media. As for the experimental part: Growth of SK-Hep1 cells was analyzed in modified DMEM media containing Met, Met-SO, Met-RO, or Met-RSO (0.1 mM of each amino acid) or with no addition of these compounds. In addition, media were supplemented or not with 100 nM sodium selenite. Cells were analyzed at 0, 24, 48, and 72 hours. Another experiment involving SK-Hep1 cells was performed with cells grown in serum-free modified DMEM medium, containing insulin (5 μg/mL) and transferrin (10 μg/mL), Met or Met-RSO (0.1 mM of each amino acid) and 100 nM sodium selenite (or with no addition of this compound), and separately in 10% dialyzed FBS-containing DMEM medium containing 0.1 mM Met with 100 nM sodium selenite (or not). Cells were analyzed at 0, 24, 48, and 72 hours. Cell growth assays were carried out as described below.
Proliferation Assay—Cell growth was quantified using colorimetric MTS assay (Promega). Cells in regular DMEM medium were plated in 96-well plates at 5×10^3 cells/well, washed with PBS, and specialized DMEM media were added that contained Met, Met-SO, Met-RO, or Met-RSO 24 hours after plating. […] After 90 minutes of incubation at 37° C. in the atmosphere of 5% CO2, cell proliferation was measured at indicated time periods from 0 to 96 hours at 450 nm in a plate reader. […]

The target in experiment [5] is T3, yeast fRMsr (Saccharomyces cerevisiae, UniProt P36088).
T3 construct: His-tag (C); made in house; host or cells: E. coli BL21 (DE3), pET21b
T3 sequence (P36088 1-180): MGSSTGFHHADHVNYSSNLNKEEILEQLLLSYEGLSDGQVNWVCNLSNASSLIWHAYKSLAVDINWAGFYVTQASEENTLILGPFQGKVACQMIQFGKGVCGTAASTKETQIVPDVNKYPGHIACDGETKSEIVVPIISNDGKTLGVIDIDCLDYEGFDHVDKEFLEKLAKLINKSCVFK
Kind of experiment: Reduction of methylsulfinyl drugs by yeast fRMsr (HPLC analysis). The conditions noted are these: in the presence of DTT. The experiment is classed as biochemical. How it is done:
as §2
The reduction of triclabendazole sulfoxide was examined. This compound has been used to treat liver fluke, Fasciola hepatica and Fasciola gigantica, in sheep, goat, and cattle as a form of triclabendazole. Triclabendazole can be metabolized to several different forms including triclabendazole sulfoxide, which is an oxidized form of methylsulfide group, in biological systems. FIG. 15A provides an HPLC analysis of triclabendazole sulfoxide incubated with mouse MsrA and DTT. […]

Where [6] appears, read: thioredoxin system as reductant.

Sequence of mouse MsrB2 (Q78J03 43-175): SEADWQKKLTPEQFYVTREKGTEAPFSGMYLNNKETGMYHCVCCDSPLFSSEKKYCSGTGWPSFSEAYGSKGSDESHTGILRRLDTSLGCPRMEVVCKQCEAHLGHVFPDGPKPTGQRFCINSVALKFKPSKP

Regarding Dimethylsulfoxide [DMSO], the “Reduction by mouse MsrB2” value in experiment [1] is “very inefficient substrate”. For the same compound, the “Reduction by mouse MsrA” value in experiment [2] (DTT as a reductant) is recorded as “can be reduced”. Also, the “Reduction by mouse MsrB1-Cys” value in experiment [3] is “very inefficient substrate”.

As to `O=[Se]([O-])[O-].[Na+].[Na+]` [sodium selenite], the “Influence on cell growth on Met and Met sulfoxide” value in experiment [4] is “did not influence cell growth”.

As for `COc1cc([S+](C)[O-])ccc1-c1nc2ncccc2[nH]1` (stereo not drawn) [sulmazole, Sulmazole], in experiment [5], the “Reduction by yeast fRMsr” value is “not reduced”. Further, in experiment [1], the “Reduction by mouse MsrB2” value was “not reduced”. The “Reduction by mouse MsrA” value in experiment [2] (DTT as a reductant) and in experiment [2] (setting [6]) was “specifically reduced” each time.

Regarding `CN1CCCCC1CCN1c2ccccc2Sc2ccc([S+](C)[O-])cc21` (stereo not drawn) [Mesoridazine], in experiment [5], the “Reduction by yeast fRMsr” value is reported as “no activity was observed”. In addition, the “Reduction by mouse MsrB2” value in experiment [1] is reported as “no activity was observed”. In addition, the “Reduction by mouse MsrA” value in experiment [2] (DTT as a reductant) and in experiment [2] (setting [6]) was “reduced to thioridazine” throughout.
